From ChEMBL document CHEMBL3853293, “Part-1: Design, synthesis and biological evaluation of novel bromo-pyrimidine analogs as tyrosine kinase inhibitors” (Eur J Med Chem, 2016) come the findings set out here.

Bounds are passed on as bounds.

Data set [1] addresses Bcr/Abl fusion protein (Homo sapiens, UniProt P00519). Description: Inhibition of BRC/ABL1 (unknown origin) after 40 mins by ADP-Glo assay. It is filed as protein assay.
A short description of data set [2]: Cytotoxicity against human U937 cells assessed as reduction in cell viability after 96 hrs by MTT assay. The settings on record: U-937, 96 h. (Tetrazolium dyes change colour on reduction, which living cells bring about.)
Data set [3] can be described thus: Cytotoxicity against human L02 cells assessed as reduction in cell viability after 96 hrs by MTT assay. In kind it is toxicity, cell-based.
The nature of data set [4]: Cytotoxicity against human A549 cells assessed as reduction in cell viability after 96 hrs by MTT assay. The settings on record: A549, 96 h.
Data set [5] is described as follows: Cytotoxicity against human HCT116 cells assessed as reduction in cell viability after 96 hrs by MTT assay. The settings on record: HCT-116, 96 h.
Data set [6] is described as follows: Cytotoxicity against human K562 cells assessed as reduction in cell viability after 96 hrs by MTT assay. The settings on record: K562, 96 h.

A word on the IC50: it is the point on the concentration scale where inhibition reaches its midpoint.

Sequence of Bcr/Abl fusion protein (P00519 whole entry, the tested form may be a part): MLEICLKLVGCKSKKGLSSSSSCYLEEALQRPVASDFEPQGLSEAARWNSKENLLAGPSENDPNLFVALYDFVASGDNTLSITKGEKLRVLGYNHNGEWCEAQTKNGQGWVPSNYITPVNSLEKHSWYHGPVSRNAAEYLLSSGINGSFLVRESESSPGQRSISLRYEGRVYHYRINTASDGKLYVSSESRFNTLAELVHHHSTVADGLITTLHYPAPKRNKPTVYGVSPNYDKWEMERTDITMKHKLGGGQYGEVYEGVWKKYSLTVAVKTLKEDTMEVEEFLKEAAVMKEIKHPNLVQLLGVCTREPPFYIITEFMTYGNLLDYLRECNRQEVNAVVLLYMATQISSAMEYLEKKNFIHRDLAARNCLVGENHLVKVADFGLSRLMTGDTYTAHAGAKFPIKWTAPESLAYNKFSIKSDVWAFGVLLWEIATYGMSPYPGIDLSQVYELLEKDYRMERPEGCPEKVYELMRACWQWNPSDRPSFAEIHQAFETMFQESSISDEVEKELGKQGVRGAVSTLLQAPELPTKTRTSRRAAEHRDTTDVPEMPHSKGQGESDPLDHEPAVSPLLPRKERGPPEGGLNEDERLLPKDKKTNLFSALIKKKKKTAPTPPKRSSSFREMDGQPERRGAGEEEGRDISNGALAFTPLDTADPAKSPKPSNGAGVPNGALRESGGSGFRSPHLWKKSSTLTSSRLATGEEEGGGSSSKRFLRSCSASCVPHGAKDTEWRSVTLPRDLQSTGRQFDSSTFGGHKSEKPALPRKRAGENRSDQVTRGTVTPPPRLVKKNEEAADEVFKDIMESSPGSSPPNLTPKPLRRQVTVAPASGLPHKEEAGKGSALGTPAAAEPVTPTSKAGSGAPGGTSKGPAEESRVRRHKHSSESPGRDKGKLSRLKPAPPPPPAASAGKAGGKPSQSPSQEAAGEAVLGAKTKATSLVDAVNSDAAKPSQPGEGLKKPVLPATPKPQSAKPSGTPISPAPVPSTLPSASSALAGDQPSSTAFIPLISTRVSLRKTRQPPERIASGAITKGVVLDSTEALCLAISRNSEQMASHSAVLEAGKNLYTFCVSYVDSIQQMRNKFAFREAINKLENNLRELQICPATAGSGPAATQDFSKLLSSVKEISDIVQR
Sequence of Bcr/Abl fusion protein (P11274 whole entry, further chain, the tested form may be a part): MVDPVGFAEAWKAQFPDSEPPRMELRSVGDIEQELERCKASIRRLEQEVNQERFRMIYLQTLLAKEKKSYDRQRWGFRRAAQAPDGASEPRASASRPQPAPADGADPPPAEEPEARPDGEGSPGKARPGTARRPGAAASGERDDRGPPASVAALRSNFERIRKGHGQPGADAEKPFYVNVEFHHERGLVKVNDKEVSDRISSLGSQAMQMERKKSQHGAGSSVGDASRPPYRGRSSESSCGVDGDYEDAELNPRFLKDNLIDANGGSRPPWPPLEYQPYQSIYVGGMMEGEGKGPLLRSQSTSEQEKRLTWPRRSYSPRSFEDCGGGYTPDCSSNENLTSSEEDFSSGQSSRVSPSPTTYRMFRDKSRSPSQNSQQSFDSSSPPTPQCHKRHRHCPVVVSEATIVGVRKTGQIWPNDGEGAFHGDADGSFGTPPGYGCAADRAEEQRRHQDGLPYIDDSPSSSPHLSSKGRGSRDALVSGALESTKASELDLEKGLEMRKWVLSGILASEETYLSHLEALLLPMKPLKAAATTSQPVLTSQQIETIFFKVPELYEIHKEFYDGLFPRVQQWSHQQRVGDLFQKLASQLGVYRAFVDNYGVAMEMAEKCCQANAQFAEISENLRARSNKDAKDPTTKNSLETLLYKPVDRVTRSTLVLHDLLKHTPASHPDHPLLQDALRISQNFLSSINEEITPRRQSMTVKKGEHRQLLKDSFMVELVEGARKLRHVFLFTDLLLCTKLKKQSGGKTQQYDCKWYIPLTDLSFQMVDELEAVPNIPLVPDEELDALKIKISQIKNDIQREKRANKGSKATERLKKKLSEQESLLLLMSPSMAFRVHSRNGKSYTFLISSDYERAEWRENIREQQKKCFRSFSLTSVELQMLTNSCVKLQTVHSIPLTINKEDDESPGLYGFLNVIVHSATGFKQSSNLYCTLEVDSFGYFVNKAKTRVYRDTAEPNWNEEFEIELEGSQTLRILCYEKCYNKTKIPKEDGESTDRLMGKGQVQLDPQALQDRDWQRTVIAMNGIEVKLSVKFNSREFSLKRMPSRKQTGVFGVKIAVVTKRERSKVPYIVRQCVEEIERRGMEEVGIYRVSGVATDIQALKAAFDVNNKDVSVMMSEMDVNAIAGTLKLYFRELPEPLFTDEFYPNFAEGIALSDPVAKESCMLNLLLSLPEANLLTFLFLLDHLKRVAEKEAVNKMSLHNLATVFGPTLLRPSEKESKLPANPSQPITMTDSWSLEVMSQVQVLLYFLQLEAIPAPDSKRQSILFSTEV

`Cc1ccc(S(=O)(=O)N2CCN(c3nc(Cl)ncc3Br)CC2)cc1` came in with a half-maximal inhibitory concentration (IC50) in data set [1] of 58 µM.

For `O=S(=O)(C1CC1)N1CCN(c2nc(N3CCOCC3)ncc2Br)CC1`, the IC50 in data set [2] amounted to 12.1 µM; in data set [1], 0.22 µM; in data set [4] it was 12 µM; in data set [5], 8.11 µM; in data set [6] it was 9.12 µg/mL. The IC50 at 96 h in data set [3] is greater than 40 µM.

On to `O=C(c1ccc(F)cc1)N1CCN(c2nc(Cl)ncc2Br)CC1`, for which the IC50 was determined as 9.12 µg/mL in data set [2]; 0.019 µM in data set [1]; 7.34 µg/mL in data set [4]; 8.11 µM in data set [5]; 8.82 µg/mL in data set [6]. Moreover, the half-inhibitory concentration (IC50) at 96 h in data set [3] is greater than 40 µM.

Turning to `O=C(c1ccc(F)cc1)N1CCN(c2nc(N3CCOCC3)ncc2Br)CC1`, the IC50 in data set [2] came out at 9.89 µg/mL; in data set [1] it was 0.024 µM; in data set [4] it was 8.67 µM; in data set [5], 4.56 µg/mL; in data set [6], 9.45 µg/mL. Moreover, the IC50 at 96 h in data set [3] is greater than 40 µM.

For the compound `Cc1noc(C)c1S(=O)(=O)N1CCN(c2nc(N3CCOCC3)ncc2Br)CC1`, the IC50 was 11.7 µM in data set [2]; greater than 500 µM in data set [1]; 10.5 µM in data set [4]; 8.34 µM in data set [5]; 9.45 µg/mL in data set [6]. The IC50 at 96 h in data set [3] is greater than 40 µM.

`O=S(=O)(c1ccc(-c2ccccc2)cc1)N1CCN(c2nc(N3CCOCC3)ncc2Br)CC1`: the IC50 in data set [2] was determined as 11.2 µM; in data set [1], 0.32 µM; in data set [4] it was 10.1 µM; in data set [5], 9.12 µM; in data set [6], 9.32 µg/mL. Further, the IC50 at 96 h in data set [3] is greater than 40 µM.

Turning to `CS(=O)(=O)N1CCN(c2nc(N3CCOCC3)ncc2Br)CC1`, the IC50 in data set [2] was found to be 11.6 µM; in data set [4], 9.71 µM; in data set [5] it was 8.11 µM; in data set [6] it was 12 µM. Further, in data set [3], the IC50 at 96 h is greater than 40 µM.

As to `O=S(=O)(c1ccc(F)cc1)N1CCN(c2nc(Cl)ncc2Br)CC1`, the IC50 in data set [1] is 122 µM.

Regarding `O=C(c1cc(I)ccc1Cl)N1CCN(c2nc(Cl)ncc2Br)CC1`, the IC50 in data set [2] came to 12.2 µM; in data set [1], 16.2 µM; in data set [4], 12.2 µM; in data set [5], 6.51 µM; in data set [6] it was 8.67 µg/mL. In data set [3], the IC50 at 96 h is greater than 40 µM.

Take `Cc1ccc(S(=O)(=O)N2CCN(c3nc(N4CCOCC4)ncc3Br)CC2)cc1`: the IC50 in data set [2] came out at 10.5 µM; in data set [1] it was 1.98 µM; in data set [4], 9.23 µM; in data set [5], 7.65 µM; in data set [6], 10.3 µg/mL. In addition, in data set [3], the IC50 at 96 h is greater than 40 µM.

Turning to `O=C(c1cc(Cl)ccc1Cl)N1CCN(c2nc(Cl)ncc2Br)CC1`, the half-maximal inhibitory concentration (IC50) in data set [2] was 11.3 µM; in data set [1], 2.28 µM; in data set [4] it was 10.5 µM; in data set [5], 8.23 µM; in data set [6], 9.22 µg/mL. For the same compound, the IC50 at 96 h in data set [3] was greater than 40 µM.

With `N#Cc1ccc(S(=O)(=O)N2CCN(c3nc(N4CCOCC4)ncc3Br)CC2)cc1`, the IC50 in data set [2] is 12.2 µM; in data set [1], greater than 500 µM; in data set [4], 12.4 µM; in data set [5], 8.33 µM; in data set [6], 10.5 µg/mL. In addition, the IC50 at 96 h in data set [3] was greater than 40 µM.

In data set [1], `CS(=O)(=O)N1CCN(c2nc(Cl)ncc2Br)CC1` registered an IC50 of 0.255 µM.

Turning to `O=C(c1ccc(Cl)cc1[N+](=O)[O-])N1CCN(c2nc(Cl)ncc2Br)CC1`, the IC50 in data set [2] worked out at 14.3 µM; in data set [1] it was 2.58 µM; in data set [4], 12.1 µM; in data set [5], 7.34 µM; in data set [6], 10.2 µg/mL. Further, the IC50 at 96 h in data set [3] was greater than 40 µM.

Turning to `O=[N+]([O-])c1cc(C(F)(F)F)ccc1S(=O)(=O)N1CCN(c2nc(N3CCOCC3)ncc2Br)CC1`, the IC50 was 7.14 µg/mL in data set [2]; 0.0206 µM in data set [1]; 6.65 µg/mL in data set [4]; 4.02 µg/mL in data set [5]; 9.65 µg/mL in data set [6]. In addition, the IC50 at 96 h in data set [3] is greater than 40 µM.

For `O=S(=O)(c1ccc(C(F)(F)F)cc1)N1CCN(c2nc(N3CCOCC3)ncc2Br)CC1`, the IC50 was determined as 7.54 µg/mL in data set [2]; 0.019 µM in data set [1]; 6.25 µg/mL in data set [4]; 4.32 µg/mL in data set [5]; 9.95 µg/mL in data set [6]. The IC50 at 96 h in data set [3] was greater than 40 µM.

Consider `O=C(c1c(F)cccc1F)N1CCN(c2nc(Cl)ncc2Br)CC1`, for which the IC50 in data set [2] stood at 12.4 µM; in data set [1], 2.65 µM; in data set [4], 12.6 µM; in data set [5], 4.97 µg/mL; in data set [6], 10.2 µg/mL. Moreover, the IC50 at 96 h in data set [3] is greater than 40 µM.

Regarding `O=S(=O)(c1ccc2ccccc2c1)N1CCN(c2nc(N3CCOCC3)ncc2Br)CC1`, the IC50 in data set [2] worked out at 15.1 µM; in data set [1], 0.44 µM; in data set [4], 8.23 µg/mL; in data set [5] it was 9.56 µM; in data set [6], 10.3 µg/mL. Also, in data set [3], the IC50 at 96 h is greater than 40 µM.

For `COC(=O)NC(C(=O)N1CCN(c2nc(Cl)ncc2Br)CC1)C(C)C` (stereo not drawn), the IC50 in data set [1] stood at 0.385 µM.

For the compound `Cc1ccc(S(=O)(=O)N2CCN(c3nc(N4CCOCC4)ncc3Br)CC2)c(C)c1`, the IC50 was determined as 12.8 µM in data set [2]; 1.69 µM in data set [1]; 11.2 µM in data set [4]; 8.56 µM in data set [5]; 9.09 µg/mL in data set [6]. The IC50 at 96 h in data set [3] is greater than 40 µM.

As for `O=S(=O)(c1ccc(F)cc1)N1CCN(c2nc(N3CCOCC3)ncc2Br)CC1`, the IC50 is 11.1 µM in data set [2]; 4.52 µM in data set [1]; 9.34 µM in data set [4]; 8.11 µM in data set [5]; 9.32 µg/mL in data set [6]. Further, in data set [3], the IC50 at 96 h was greater than 40 µM.

For the compound `O=S(=O)(c1cc(C(F)(F)F)cc(C(F)(F)F)c1)N1CCN(c2nc(Cl)ncc2Br)CC1`, half-maximal inhibition in data set [1] (IC50) was put at 2.25 µM.

As to `CC(C)(C)c1ccc(S(=O)(=O)N2CCN(c3nc(N4CCOCC4)ncc3Br)CC2)cc1`, the IC50 was found to be 12.8 µM in data set [2]; 1.15 µM in data set [1]; 12.4 µM in data set [4]; 8.67 µM in data set [5]; 9.09 µg/mL in data set [6]. In data set [3], the IC50 at 96 h is greater than 40 µM.

`O=[N+]([O-])c1cc(C(F)(F)F)ccc1S(=O)(=O)N1CCN(c2nc(Cl)ncc2Br)CC1` showed an IC50 in data set [1] of 0.0226 µM.

`O=C(c1cc(Cl)c(Cl)c(Cl)n1)N1CCN(c2nc(Cl)ncc2Br)CC1`: in data set [1], the IC50 was found to be 1.44 µM.

With `O=C(c1ccc(C(F)(F)F)cc1)N1CCN(c2nc(Cl)ncc2Br)CC1`, the IC50 came out at 7.12 µg/mL in data set [2]; 0.019 µM in data set [1]; 8.23 µg/mL in data set [4]; 4.92 µg/mL in data set [5]; 10.3 µg/mL in data set [6]. Also, in data set [3], the IC50 at 96 h was greater than 40 µM.

In data set [1], `O=S(=O)(c1ccc(-c2ccccc2)cc1)N1CCN(c2nc(Cl)ncc2Br)CC1` yielded an IC50 of 0.64 µM.

For the compound `Cc1noc(C)c1S(=O)(=O)N1CCN(c2nc(Cl)ncc2Br)CC1`, the IC50 in data set [1] was determined as 0.56 µM.

Turning to `O=S(=O)(c1cc(Cl)sc1Cl)N1CCN(c2nc(N3CCOCC3)ncc2Br)CC1`, the IC50 is 13.6 µM in data set [2]; greater than 500 µM in data set [1]; 9.56 µM in data set [4]; 9.23 µM in data set [5]; 10.1 µg/mL in data set [6]. In addition, the IC50 at 96 h in data set [3] was greater than 40 µM.

With `O=C(c1ccc(Cl)cc1[N+](=O)[O-])N1CCN(c2nc(N3CCOCC3)ncc2Br)CC1`, the IC50 is 13.1 µM in data set [2]; greater than 500 µM in data set [1]; 9.76 µM in data set [4]; 6.43 µM in data set [5]; 13.2 µM in data set [6]. Also, the IC50 at 96 h in data set [3] was greater than 40 µM.

Take `O=S(=O)(C1CC1)N1CCN(c2nc(Cl)ncc2Br)CC1`: the IC50 in data set [1] was greater than 500 µM.

For the compound `O=C(c1c(F)cccc1F)N1CCN(c2nc(N3CCOCC3)ncc2Br)CC1`, the IC50 in data set [2] was 13.1 µM; in data set [1], 0.89 µM; in data set [4], 7.17 µg/mL; in data set [5], 5.56 µM; in data set [6] it was 11.2 µg/mL. The IC50 at 96 h in data set [3] is greater than 40 µM.

On to `O=C(c1ccc(C(F)(F)F)cc1)N1CCN(c2nc(N3CCOCC3)ncc2Br)CC1`, for which the IC50 was 9.88 µg/mL in data set [2]; 0.024 µM in data set [1]; 6.44 µg/mL in data set [4]; 4.45 µg/mL in data set [5]; 9.17 µg/mL in data set [6]. In data set [3], the IC50 at 96 h was greater than 40 µM.

On to `CCCS(=O)(=O)N1CCN(c2nc(Cl)ncc2Br)CC1`, for which the IC50 in data set [1] was greater than 500 µM.

On to `Cc1nc(Nc2ncc(C(=O)Nc3c(C)cccc3Cl)s2)cc(N2CCN(CCO)CC2)n1` [DASATINIB], for which the IC50 was 10.2 µM in data set [2], 8.37 µM in data set [4], 5.23 µM in data set [5] and 12 µM in data set [6]. Moreover, in data set [3], the IC50 at 96 h was greater than 40 µM.
